Data taken from patent US4617393A, “5-substituted-6-aminopyrimidines, composition and uses as cardiotonic agents for increasing cardiac contractility” (American Home Products Corporation, priority 1985, dated 1986).
Read-outs that look alike come from different tables or passages of the source.

How the values were obtained:
[1] = system: Isolated Cat Papillary Muscle; assay: Test for Cardiotonic Activity in Isolated Cat Papillary Muscle; assay type: cell-based; settings: Felis catus; for activation at 100 µM: read-out: % increase (force of contraction); for EC50: increase in force of contraction, stimulated at 0.5 Hz, 37° C.
Description: Test for Cardiotonic Activity in Isolated Cat Papillary Muscle
A cat of either sex was anesthetized with Na pentobarbital, 25-30 mg/kg i.v. The heart was rapidly removed and placed in cool Tyrode's solution which had been equilibrated with 95% O2 -5% CO2. The right ventricle was opened by cutting down the sides and around the apex so that the free wall could be folded back on the atriventricular groove. Usually at least three suitably-sized papillary muscles were found (1 mm or less in thickness). Threads were tied around the chordae tendonae and the base of the muscle just above its point of insertion into the ventricular wall. The chordae were cut, and the muscle was removed along with a small button of ventricular wall. If a sufficient number of papillary muscles were not present, trabeculae carnae could also be used. The best ones were usually found inserting just under the valve.
The preparations were mounted in tissue baths containing Tyrode's solution at 37° C. bubbled with 95% O2 -5% CO2. One thread was affixed to a tissue holder incorporating a pair of platinum electrodes and the other thread was attached to a force displacement transducer. Initial tension placed on the preparation was 0.2 g (less for very small muscles). The preparations were stimulated with square-wave pulses, 2-4 msec. in duration and 10% above threshold voltage, at a rate of 0.5 Hz. […] The preparations were then allowed to equilibrate for one hour with frequent changes of the bathing fluid (10-15 min. intervals). The test compound was added to the bath in 0.1 mL of vehicle and incubated with the preparation for 15 min. or until peak effect was attained.
Using this method, the following representative compounds of formula I were effective for increasing the force of contraction of the papillary muscle.

[2] = system: Pentobarbital-Induced Cardiac Failure in the Dog; assay: Pentobarbital-induced Cardiac Failure in the Dog; assay type: in vivo; settings: Canis lupus familiaris, iv, anesthetized dog, read-out: ED50 (dose i.v. to give a 50% increase in dP/dt)
Description: Pentobarbital-induced Cardiac Failure in the Dog
A dog of either sex was anesthetized with Na pentobarbital, 30-35 mg/kg i.v. The trachea was intubated and the animal was respired at a rate of 20 breaths/min (stroke volume=15 cc/kg). Both femoral veins were cannulated. One cannula was used for infusion of pentobarbital to induce and maintain failure, the other for injection of test compounds. A cannual was inserted into the aorta via a femoral artery and the cannula was attached to a blood pressure transducer for measurement of systolic, diastolic and mean aortic blood pressure. A Millar pressure-tip catheter was inserted into the other femoral artery and advanced into the left ventricle to record intraventricular pressure and dP/dt. Subdermal needle electrodes were used to record a lead II electrocardiogram and heart rate.
Following a stabilization period of at least 30 min, experimental failure was induced by the i.v. infusion of Na pentobarbital, 0.75 mg/kg/min in 0.2 mL of saline/min, until a 40-50% decrease in peak positive dP/dt was obtained. The failure state was maintained at this level throughout the experiment by continuous infusion of Na pentobarbital, 0.11-0.15 mg/kg/min. Once the maintenance infusion was started, at least 15 min were allowed to elapse before test drugs were administered.
Test compounds were prepared in N saline. Increasingly higher doses were given i.v. at 30 min-1 hr intervals in order to determine a therapeutic (50% increase in dP/dt) to toxic (appearance of arrhythmias) ratio where possible.
Using this method, the following representative compounds of formula I were effective for increasing the cardiac contractility of the heart (the amount of test compound in mg per kg of body weight administered i.v. to give a 50% increase in dP/dt.

| Structure (SMILES) | EC50 [1] | ED50 [2] | also measured |
| --- | --- | --- | --- |
| Cc1nc(O)c(C)c(NCCc2ccncc2)n1 [Example 8, 2,5-Dimethyl-6-[(2-(4-pyridinyl)ethyl)amino]-4-pyrimidinol] |  |  | activation at 100 µM ([1]; at 10^-4 (unit inferred)): 52% |
| Cc1nc(=O)c(C)c(NCCc2cccn2C)[nH]1 [Example 2, 1,4-Dihydro-2,5-dimethyl-6-[[2-(1-methyl-1H-pyrrol-2-yl)ethyl]amino]-4-pyrimidinone] | 2.9 µM |  |  |
| Cc1nc(=O)c(F)c(NCc2cccnc2)[nH]1 [Example 6, 5-Fluoro-1,4-dihydro-2-methyl-6-[(3-pyridinylmethyl)amino]-4-pyrimidinone] |  |  | activation at 100 µM ([1]; at 10^-4 M): 69% |
| Cc1nc(O)c(Cl)c(NCCc2ccccc2)n1 [Example 4, 5-Chloro-2-methyl-6-[(2-phenylethyl)amino]-4-pyrimidinol] | 1.5 µM | 0.04 mg/kg |  |
| CCNc1nc(C)nc(O)c1C(C)C [Example 14, 6-(Ethylamino)-2-methyl-5-(1-methylethyl)-4-pyrimidinol] |  | 0.04 mg/kg | activation at 100 µM ([1]; at 10^-4 M): 86% |
| Cc1nc(O)c(Br)c(NCCc2ccncc2)n1 [Example 10, 5-Bromo-2-methyl-6-[[2-(4-pyridinyl)ethyl]amino]-4-pyrimidinol] |  |  | EC50 ([1]; unit inferred): 250 µM |
| Cc1nc(O)c(C(C)C)c(NCC2CC2)n1 [Example 17, 6-[(Cyclopropylmethyl)amino]-2-methyl-5-(1-methylethyl)-4-pyrimidinol] |  | 0.5 mg/kg | activation at 100 µM ([1]; at 10^-4 M): 185% |
| Cc1nc(O)c(Br)c(NCc2cccnc2)n1 [Example 1, 5-Bromo-2-methyl-6-[(3-pyridinylmethyl)amino]-4-pyrimidinol] | 2.5 µM | 0.012 mg/kg |  |
| Cc1nc(O)c(Cl)c(NCc2cccnc2)n1 [Example 3, 5-Chloro-2-methyl-6-[(3-pyridinylmethyl)amino]-4-pyrimidinol] | 1 µM | 0.02 mg/kg |  |
| Cc1nc(O)c(Br)c(NCCc2ccccc2)n1 [Example 9, 5-Bromo-2-methyl-6-[(2-phenylethyl)amino]-4-pyrimidinol] |  | 0.03 mg/kg | EC50 ([1]; unit inferred): 13 µM |

Further lines, with some results ahead:

| EC50 [1] | Structure (SMILES) | ED50 [2] | also measured |
| --- | --- | --- | --- |
| 2.8 µM | CCNc1[nH]c(C)nc(=O)c1Br [Example 15, 5-Bromo-1,4-dihydro-6-(ethylamino)-2-methyl-4-pyrimidinone] | 0.01 mg/kg |  |
| 10 µM | Cc1nc(O)c(C)c(NCc2ccco2)n1 [Example 11, 6-[(2-Furanylmethyl)amino]-2,5-dimethyl-4-pyrimidinol] |  |  |
| 7.4 µM | Cc1nc(O)c(C(C)C)c(NCc2cccnc2)n1 [Example 7, 2-Methyl-5-(1-methylethyl)-6-[(3-pyridinylmethyl)amino]-4-pyrimidinol] | 0.13 mg/kg |  |
| 3.7 µM | Cc1nc(O)c(C)c(NCC2CC2)n1 [Example 13, 6-[(Cyclopropylmethyl)amino]-2,5-dimethyl-4-pyrimidinol] | 0.05 mg/kg |  |
| 11 µM | Cc1nc(=O)c(C)c(NCc2cccnc2)[nH]1 [Example 5, 1,4-Dihydro-2,5-dimethyl-6-[(3-pyridinylmethyl)amino]-pyrimidine-4-one] | 0.05 mg/kg |  |
| 5 µM | CCNc1nc(C)nc(O)c1C [Example 12, 6-(Ethylamino)-2,5-dimethyl-4-pyrimidinol] | 0.04 mg/kg |  |
| 8.2 µM | Cc1nc(O)c(Br)c(NCCO)n1 [Example 16, 5-Bromo-6-[(2-hydroxyethyl)amino]-2-methyl-4-pyrimidinol] |  |  |
